Data published in patent publication US7960508B2, “Peptide having cytotoxicity inhibitory activity and method of screening these peptide having cytotoxicity inhibitory activity” (Juridical Foundation The Chemo-Sero-Therapeutic Research …, priority 2001, dated 2011).
Non-standard residues stand in square brackets, D forms with d. Residues, ends and D or L forms follow the SMILES beside them. No end group written: not given here. Sec = N[C@@H](C[SeH])C(=O)O

Experiments:
Dami cells [1] = assay: Minimum concentration for cytotoxic effect / effective minimum concentration (Example 2); type: cell-based
Method: Using Dami cells (described in Greenberg S. M. et al., Blood, vol. 72, p. 1968-1977 (1988)) for use in assay system for the cytotoxicity-inhibitory activity, the cells were washed twice with assay medium (50% PBS/SA/0.03% HSA (manufactured by SIGMA) or SA/0.05% BSA free from fatty acid (WAKO)/4 μM long-chain polyvalent fatty acid (e.g. arachidonic acid, linoleic acid or linolenic acid)) and suspended in the same medium at 3×10^4 cells/ml.

Dami cells [2] = assay: Screening of efficacious peptides: cytotoxicity-inhibitory activity (Example 3); type: cell-based; settings: for Activity/1 mM Sec: cytotoxicity-inhibitory activity per 1 mM selenocysteine
Method: (§1) The cells were washed twice with 50% PBS/SA/0.03% HSA (manufactured by SIGMA) and suspended in the same medium at 3×10^4 cells/ml.
(§2) For assessment, it was examined to what folds of dilution of tested samples the cells could survive in view of the fact that on Day 4 the cells in wells without the activity were put to death whereas the cells in wells with the activity survived.
Cytotoxicity-inhibitory activity was determined for each of the peptides obtained above as described in Reference Example 1 and in accordance with Reference Example 2. As a result, selenocysteine-containing peptides, Peptide 3 through Peptide 16, were confirmed to have the cytotoxicity-inhibitory activity.

Dami cells [3] = assay: Cytotoxicity induced by fatty acid and inhibitory activity thereto (Reference Example 2); settings: for fatty acid concentration inducing cytotoxicity: human
Method: To 1 ml Dami cells (1×10^6 cells/dish/3 ml), which can be subcultured in serum free medium SFO3 (manufactured by Sanko Jun-yaku K.K.) containing 0.05 μM 2ME and 0.1% BSA, was added 2 ml 1:2:2 mixed medium (SA medium) of RPMI 1640/D-MEM/F-12. The cells were cultured for three days and recovered for assay. The cells were washed twice with SA/0.05% fatty acid free BSA (manufactured by Wako Jun-yaku K.K.) and suspended at 3×10^4 cells/ml in the same medium containing 2 to 16 μM arachidonic acid, linoleic acid or linolenic acid. The cell suspension was added to a 96-well plate in each 198 μl for wells for sample addition or in each 100 μl for wells for serial dilution.
To the wells for sample addition was added each 2 μl of 100 μM assay sample and, after stirring, a serial dilution was made with the wells containing 100 μl cell suspension. The plate was incubated at 37° C. in CO2 incubator for 4 to 5 days.

[4] = test system: intracellular GPX (glutathione peroxidase) activity in Dami cells; assay: Increase in intracellular GPX (glutathione peroxidase) activity (Example 5); type: cell-based, human
Method: The resulting cells were suspended in SA/0.01% BSA at 5×10^5 cells/ml. To 1 ml of this cell suspension were added samples at a fixed concentration so as to compare a concentration that was effective for increase in GPX activity in the samples.
The samples included a selenoprotein P fragment, a synthetic peptide, selenocystine, selenomethionine, Ebselen and sodium selenite. The effect was compared among these samples. […] See FIG. 4 in which the axis of abscissas indicates a percent GPX activity induced by various samples with the GPX activity induced by addition of 10 nM selenoprotein P fragment being 100% while culture of Dami cells.

Dami cells [5] = assay: Assessment system for activity to inhibit cytotoxicity induced by addition of albumin (Reference Example 1); type: cell-based
Method: As one of preferable embodiments, a culture system of Dami cells, human megakaryoblasts, with serum free culture medium supplemented with albumin was used for screening. […] A diluted sample of active fractions was added to this culture system so that the cytotoxicity-inhibitory activity could be assessed.
as §1, §2

[6] = 1 nM, 10 nM selenoprotein P fragment being 100%

O=c1c2ccccc2[se]n1-c1ccccc1 [Ebselen]
toxicity upon addition to cell culture (Dami cells [1]): exhibited a strong toxicity

CC[C@H](C)[C@H](NC(=O)[C@H](CC(C)C)NC(=O)[C@H](Cc1c[nH]cn1)NC(=O)[C@H](CCCNC(=N)N)NC(=O)[C@H](CO)NC(=O)[C@H](Cc1c[nH]cn1)NC(=O)[C@H](CO)NC(=O)[C@H](CO)NC(=O)[C@H](C[SeH])NC(=O)[C@H](CO)NC(=O)[C@@H](N)CCCNC(=N)N)C(=O)N[C@@H](Cc1ccccc1)C(=O)N[C@@H](CCC(=O)O)C(=O)N[C@@H](CCCCN)C(=O)O [Peptide 6] (H-RS[Sec]SSHSRHLIFEK-OH)
cytotoxicity-inhibitory activity (Dami cells [2]; result in words): could inhibit cytotoxicity most effectively at the lowest concentration

CCCCC/C=C\C/C=C\C/C=C\C/C=C\CCCCCC(=O)O [adrenic acid]
induction of cytotoxicity by fatty acid (Dami cells [3]; 10 μM, serum free culture, absence of selenoprotein P): induced cytotoxicity

CCCCC/C=C\C/C=C\C/C=C\C/C=C\CCCC(=O)O [arachidonic acid]
fatty acid concentration inducing cytotoxicity (Dami cells [3]): ≥ 4 µM

CCCCC/C=C\C/C=C\CCCCCCCC(=O)O [linoleic acid]
fatty acid concentration inducing cytotoxicity (Dami cells [3]): ≥ 4 µM

N[C@@H](C[Se][Se]C[C@H](N)C(=O)O)C(=O)O [selenocystine]
increase in intracellular GPX activity [4, 6]: around 50%
toxicity upon addition to cell culture (Dami cells [1]): fairly strong toxicity

C[Se]CC[C@H](N)C(=O)O [selenomethionine]
increase in intracellular GPX activity ([4]; 10 nM): increase in the activity could scarcely be observed
effective minimum concentration of selenium to inhibit 80% or more of cytotoxicity (Dami cells [1]): around 1 μM

O=[Se](O)O [sodium selenite]
increase in intracellular GPX activity [4, 6]: around 50%
concentration at which toxicity was observed (Dami cells [1]; on the basis of selenium concentration, 4 to 5 days culture): around 500 nM

Ala Glu Glu Asn Ile Thr Glu Ser Ser Gln Xaa Arg (AEENITESSQ[Sec]R; listed as Human plasma) [Peptide 10]
Activity/1 mM Sec (Dami cells [2]): 6,000

Arg Ser Xaa Cys Cys His Cys Arg His Leu Ile Phe Glu Lys (RS[Sec]CCHCRHLIFEK; cysteine pairing not given here; listed as Human plasma) [Peptide 3]
Activity/1 mM Sec (Dami cells [2]): 95,000

Arg Ser Xaa Ser (RS[Sec]S; listed as Human plasma) [Peptide 7]
Activity/1 mM Sec (Dami cells [2]): 95,000

Arg Ser Xaa Ser Cys His Cys Arg His Leu Ile Phe Glu Lys (RS[Sec]SCHCRHLIFEK; cysteine pairing not given here; listed as Human plasma) [Peptide 4]
Activity/1 mM Sec (Dami cells [2]): 24,000

Arg Ser Xaa Ser Ser His Cys Arg His Leu Ile Phe Glu Lys (RS[Sec]SSHCRHLIFEK; listed as Human plasma) [Peptide 5]
Activity/1 mM Sec (Dami cells [2]): 16,000

Glu Asn Leu Pro Ser Leu Ser Ser Xaa Gln Gly Leu Arg (ENLPSLSS[Sec]QGLR; listed as Human plasma) [Peptide 9]
Activity/1 mM Sec (Dami cells [2]): 24,000

KRCINQLLCKLPTDSELAPRS (cysteine pairing not given here) [Peptide 1]
Activity/1 mM Sec (Dami cells [2]): 0

Leu Ile Pro Thr Glu Ala Ser Ala Ser Xaa Arg (LIPTEASAS[Sec]R; listed as Human plasma) [Peptide 11]
Activity/1 mM Sec (Dami cells [2]): 28,000

Leu Pro Pro Ala Ala Xaa Gln Ile Ser Gln Gln (LPPAA[Sec]QISQQ; listed as Human plasma) [Peptide 16]
Activity/1 mM Sec (Dami cells [2]): 24,000

Lys Arg Cys Ile Asn Gln Leu Leu Cys Lys Leu Pro Thr Asp Ser Glu Leu Ala Pro Arg Ser Xaa Cys Cys His Cys Arg His Leu Ile Phe Glu Lys (KRCINQLLCKLPTDSELAPRS[Sec]CCHCRHLIFEK; cysteine pairing not given here; listed as Human plasma) [SEQ ID NO: 3, peptide fragment purified under reduced condition from selenoprotein P fragment]
cytotoxicity-inhibitory activity (Dami cells [5]; result in words, assay not specified): had the cytotoxicity-inhibitory activity

Lys Asn Gln Ala Lys Lys Xaa Glu (KNQAKK[Sec]E; listed as Human plasma) [Peptide 12]
Activity/1 mM Sec (Dami cells [2]): 24,000

Lys Glu Phe Ile Leu His Arg Ser His Ser Ser Xaa Ser Arg (KEFILHRSHSS[Sec]SR; listed as Human plasma) [Peptide 14]
Activity/1 mM Sec (Dami cells [2]): 95,000

RSSCCHCRHLIFEK (cysteine pairing not given here) [Peptide 2]
Activity/1 mM Sec (Dami cells [2]): 0

Thr Gly Ser Ala Ile Thr Xaa Gln Ser Lys (TGSAIT[Sec]QSK; listed as Human plasma) [Peptide 8]
Activity/1 mM Sec (Dami cells [2]): 79,000

Xaa Pro Ser Asn ([Sec]PSN; listed as Human plasma) [Peptide 13]
Activity/1 mM Sec (Dami cells [2]): 24,000

vitamin E
effective concentration inhibiting cytotoxicity (Dami cells [3]; in the presence of 4 μM linoleic acid): about 100 nM

B1: full-length selenoprotein P: selenoprotein P as an intact molecule, a protein from blood components (protein, UniProt P49908 1-381, looked up)
chain: MWRSLGLALALCLLPSGGTESQDQSSLCKQPPAWSIRDQDPMLNSNGSVTVVALLQASUYLCILQASKLEDLRVKLKKEGYSNISYIVVNHQGISSRLKYTHLKNKVSEHIPVYQQEENQTDVWTLLNGSKDDFLIYDRCGRLVYHLGLPFSFLTFPYVEEAIKIAYCEKKCGNCSLTTLKDEDFCKRVSLATVDKTVETPSPHYHHEHHHNHGHQHLGSSELSENQQPGAPNAPTHPAPPGLHHHHKHKGQHRQGHPENRDMPASEDLQDLQKKLCRKRCINQLLCKLPTDSELAPRSUCCHCRHLIFEKTGSAITUQCKENLPSLCSUQGLRAEENITESCQURLPPAAUQISQQLIPTEASASURUKNQAKKUEUPSN
modifications: full-length
notes: selenoprotein P as an intact molecule, a protein from blood components
toxicity upon addition to cell culture (Dami cells [1]): no strong toxicity

B2: SEQ ID NO: 2: selenoprotein P fragment with the amino acid sequence from 260th Lys to 362nd Asn, Xaa represents selenocysteine (protein, listed as Human plasma)
chain: KRCINQLLCKLPTDSELAPRS[Sec]CCHCRHLIFEKTGSAIT[Sec]QCKENLPSLCS[Sec]QGLRAEENITESCQ[Sec]RLPPAA[Sec]QISQQLIPTEASAS[Sec]R[Sec]KNQAKK[Sec]E[Sec]PSN
cytotoxicity-inhibitory activity (Dami cells [5]): having the cytotoxicity-inhibitory activity
